Literature values, collected in article PMC7968864, “Theory of Allosteric Regulation in Hsp70 Molecular Chaperones” (QRB Discovery, 2020).

Assays:
WT DnaK = conditions: fluorescence anisotropy, ref Wang et al., 2020
I483D DnaK = system: I483D DnaK; design: method as in Wang et al., 2020; conditions: fluorescein-labelled NR peptide 10 nM, fluorescence anisotropy, ref Wang et al., 2020

For “NRLLLTG [fluorescein-labelled NR peptide]”, the “peptide binding in ATP versus ADP (in words)” value (WT DnaK) is listed as “much reduced in the presence of ATP as compared to when with ADP” and the “peptide binding in ADP (in words)” value (I483D DnaK) is listed as “indistinguishable from that to WT when in ADP”.
